Tests used:
Assay in all cases: relative viability (nuclei count vs DMSO), 5 days (fraction); higher = more cells survive
LCLC-97TM1 = test system: LCLC-97TM1
In short: (§1)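 Dosing by pin tool came one day after lung cancer cell lines were seeded in 1536-well plates, using either one drug or a fixed anchor-drug dose plus five library-drug doses (not always all listed) in √10 steps. After 5 days, nuclei were counted on 4× images. Relative viability is treated-well nuclei count divided by vehicle-well nuclei count, and values are medians of duplicate plates.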

HCC-827 = test system: HCC-827
In short: as §1

NCI-H1437 = test system: NCI-H1437
In short: as §1

NCI-H1666 = test system: NCI-H1666
In short: as §1

NCI-H2087 = test system: NCI-H2087
In short: as §1

NCI-H1975 = test system: NCI-H1975
In short: as §1

HCC-44 = test system: HCC-44
In short: as §1

LU99A = test system: LU99A
In short: as §1

LOU-NH91 = test system: LOU-NH91
In short: as §1

H3255 = test system: H3255
In short: as §1

COR-L 105 = test system: COR-L 105
In short: as §1

PC-3 [JPC-3] = test system: PC-3 [JPC-3]
In short: as §1

EKVX = test system: EKVX
In short: as §1

201T = test system: 201T
In short: as §1

NCI-H647 = test system: NCI-H647
In short: as §1

SW 1573 = test system: SW 1573
In short: as §1

EPLC-272H = test system: EPLC-272H
In short: as §1

NCI-H2170 = test system: NCI-H2170
In short: as §1

BEN = test system: BEN
In short: as §1

NCI-H2085 = test system: NCI-H2085
In short: as §1

Question: Which relative viability (LCLC-97TM1; first compound 0.005 µM) does the source give for `COc1cc2nccc(Oc3ccc(NC(=O)Nc4cc(C)on4)c(Cl)c3)c2cc1OC` [Tivozanib] + CC1(C)CCC(c2ccc(Cl)cc2)=C(CN2CCN(c3ccc(C(=O)NS(=O)(=O)c4ccc(N[C@H](CCN5CCOCC5)CSc5ccccc5)c(S(=O)(=O)C(F)(F)F)c4)cc3)CC2)C1 [Navitoclax] (partner 0.5 µM) here?
Answer: 0.412

Question: And the relative viability (LCLC-97TM1; first compound 0.01581 µM)?
Answer: 0.288

Question: And the relative viability (LCLC-97TM1; first compound 0.1581 µM)?
Answer: 0.413

Question: And the relative viability (LCLC-97TM1; first compound 0.5 µM)?
Answer: 0.425

Question: And the relative viability (HCC-827; first compound 0.005 µM)?
Answer: 1.01

Question: And the relative viability (HCC-827; first compound 0.01581 µM)?
Answer: 1.03

Question: And the relative viability (HCC-827; first compound 0.05 µM)?
Answer: 1.02

Question: And the relative viability (HCC-827; first compound 0.1581 µM)?
Answer: 1.05

Question: And the relative viability (HCC-827; first compound 0.5 µM)?
Answer: 1.03

Question: And the relative viability (NCI-H1437; first compound 0.005 µM)?
Answer: 1.06

Question: What about the relative viability (NCI-H1437; first compound 0.01581 µM) of the same molecule?
Answer: 1.12

Question: What about the relative viability (NCI-H1437; first compound 0.05 µM) of the same molecule?
Answer: 1.07

Question: What about the relative viability (NCI-H1437; first compound 0.1581 µM) of the same molecule?
Answer: 1.02

Question: What about the relative viability (NCI-H1437; first compound 0.5 µM) of the same molecule?
Answer: 1.02

Question: What about the relative viability (NCI-H1666; first compound 0.005 µM) of the same molecule?
Answer: 0.993

Question: What about the relative viability (NCI-H1666; first compound 0.01581 µM) of the same molecule?
Answer: 0.96

Question: What about the relative viability (NCI-H1666; first compound 0.05 µM) of the same molecule?
Answer: 1.02

Question: And the relative viability (NCI-H1666; first compound 0.1581 µM)?
Answer: 0.891

Question: And the relative viability (NCI-H1666; first compound 0.5 µM)?
Answer: 0.867

Question: And the relative viability (NCI-H2087; first compound 0.005 µM)?
Answer: 0.906

Question: What about the relative viability (NCI-H2087; first compound 0.01581 µM) of the same molecule?
Answer: 1.07

Question: And the relative viability (NCI-H2087; first compound 0.05 µM)?
Answer: 1.06

Question: And the relative viability (NCI-H2087; first compound 0.1581 µM)?
Answer: 0.917

Question: What about the relative viability (NCI-H2087; first compound 0.5 µM) of the same molecule?
Answer: 0.906

Question: And the relative viability (NCI-H1975; first compound 0.005 µM)?
Answer: 1.1

Question: And the relative viability (NCI-H1975; first compound 0.01581 µM)?
Answer: 1.19

Question: What about the relative viability (NCI-H1975; first compound 0.05 µM) of the same molecule?
Answer: 1.09

Question: What about the relative viability (NCI-H1975; first compound 0.1581 µM) of the same molecule?
Answer: 1.06

Question: What about the relative viability (NCI-H1975; first compound 0.5 µM) of the same molecule?
Answer: 0.884

Question: And the relative viability (HCC-44; first compound 0.005 µM)?
Answer: 1.01

Question: And the relative viability (HCC-44; first compound 0.01581 µM)?
Answer: 0.986

Question: And the relative viability (HCC-44; first compound 0.05 µM)?
Answer: 1.01

Question: What about the relative viability (HCC-44; first compound 0.1581 µM) of the same molecule?
Answer: 0.962

Question: And the relative viability (HCC-44; first compound 0.5 µM)?
Answer: 0.944

Question: What about the relative viability (LU99A; first compound 0.005 µM) of the same molecule?
Answer: 0.795

Question: And the relative viability (LU99A; first compound 0.01581 µM)?
Answer: 0.749

Question: What about the relative viability (LU99A; first compound 0.05 µM) of the same molecule?
Answer: 0.849

Question: What about the relative viability (LU99A; first compound 0.5 µM) of the same molecule?
Answer: 0.794

Question: What about the relative viability (LOU-NH91; first compound 0.005 µM) of the same molecule?
Answer: 0.641

Question: What about the relative viability (LOU-NH91; first compound 0.01581 µM) of the same molecule?
Answer: 0.715

Question: And the relative viability (LOU-NH91; first compound 0.05 µM)?
Answer: 0.706

Question: What about the relative viability (LOU-NH91; first compound 0.1581 µM) of the same molecule?
Answer: 0.675

Question: What about the relative viability (LOU-NH91; first compound 0.5 µM) of the same molecule?
Answer: 0.705

Question: And the relative viability (H3255; first compound 0.005 µM)?
Answer: 0.446

Question: And the relative viability (H3255; first compound 0.01581 µM)?
Answer: 0.482

Question: What about the relative viability (H3255; first compound 0.05 µM) of the same molecule?
Answer: 0.495

Question: And the relative viability (H3255; first compound 0.1581 µM)?
Answer: 0.328

Question: And the relative viability (H3255; first compound 0.5 µM)?
Answer: 0.516

Question: And the relative viability (COR-L 105; first compound 0.01581 µM)?
Answer: 0.835

Question: And the relative viability (COR-L 105; first compound 0.05 µM)?
Answer: 0.829

Question: What about the relative viability (COR-L 105; first compound 0.1581 µM) of the same molecule?
Answer: 1.17

Question: What about the relative viability (COR-L 105; first compound 0.5 µM) of the same molecule?
Answer: 0.743

Question: And the relative viability (PC-3 [JPC-3]; first compound 0.005 µM)?
Answer: 0.735

Question: What about the relative viability (PC-3 [JPC-3]; first compound 0.01581 µM) of the same molecule?
Answer: 0.87

Question: And the relative viability (PC-3 [JPC-3]; first compound 0.05 µM)?
Answer: 0.772

Question: What about the relative viability (PC-3 [JPC-3]; first compound 0.1581 µM) of the same molecule?
Answer: 0.788

Question: What about the relative viability (PC-3 [JPC-3]; first compound 0.5 µM) of the same molecule?
Answer: 0.809

Question: What about the relative viability (EKVX; first compound 0.005 µM) of the same molecule?
Answer: 0.869

Question: What about the relative viability (EKVX; first compound 0.01581 µM) of the same molecule?
Answer: 0.772

Question: And the relative viability (EKVX; first compound 0.05 µM)?
Answer: 0.982

Question: What about the relative viability (EKVX; first compound 0.1581 µM) of the same molecule?
Answer: 0.793

Question: What about the relative viability (EKVX; first compound 0.5 µM) of the same molecule?
Answer: 0.922

Question: What about the relative viability (201T; first compound 0.005 µM) of the same molecule?
Answer: 1.21

Question: What about the relative viability (201T; first compound 0.01581 µM) of the same molecule?
Answer: 1.17

Question: And the relative viability (201T; first compound 0.05 µM)?
Answer: 1.22

Question: What about the relative viability (201T; first compound 0.1581 µM) of the same molecule?
Answer: 1.17

Question: What about the relative viability (201T; first compound 0.5 µM) of the same molecule?
Answer: 1.18

Question: What about the relative viability (NCI-H647; first compound 0.005 µM) of the same molecule?
Answer: 1.12

Question: And the relative viability (NCI-H647; first compound 0.01581 µM)?
Answer: 1.24

Question: What about the relative viability (NCI-H647; first compound 0.05 µM) of the same molecule?
Answer: 1.21

Question: What about the relative viability (NCI-H647; first compound 0.1581 µM) of the same molecule?
Answer: 1.19

Question: And the relative viability (NCI-H647; first compound 0.5 µM)?
Answer: 1.03

Question: And the relative viability (SW 1573; first compound 0.005 µM)?
Answer: 0.92

Question: And the relative viability (SW 1573; first compound 0.01581 µM)?
Answer: 0.911

Question: And the relative viability (SW 1573; first compound 0.05 µM)?
Answer: 0.949

Question: What about the relative viability (SW 1573; first compound 0.1581 µM) of the same molecule?
Answer: 0.777

Question: What about the relative viability (SW 1573; first compound 0.5 µM) of the same molecule?
Answer: 0.983

Question: And the relative viability (EPLC-272H; first compound 0.005 µM)?
Answer: 0.916

Question: What about the relative viability (EPLC-272H; first compound 0.01581 µM) of the same molecule?
Answer: 1.25

Question: And the relative viability (EPLC-272H; first compound 0.05 µM)?
Answer: 1.34

Question: And the relative viability (EPLC-272H; first compound 0.1581 µM)?
Answer: 0.967

Question: What about the relative viability (EPLC-272H; first compound 0.5 µM) of the same molecule?
Answer: 0.911

Question: What about the relative viability (NCI-H2170; first compound 0.005 µM) of the same molecule?
Answer: 0.537

Question: And the relative viability (NCI-H2170; first compound 0.01581 µM)?
Answer: 0.568

Question: What about the relative viability (NCI-H2170; first compound 0.05 µM) of the same molecule?
Answer: 0.677

Question: What about the relative viability (NCI-H2170; first compound 0.5 µM) of the same molecule?
Answer: 0.584

Question: What about the relative viability (BEN; first compound 0.005 µM) of the same molecule?
Answer: 0.0616

Question: And the relative viability (BEN; first compound 0.01581 µM)?
Answer: 0.0524

Question: What about the relative viability (BEN; first compound 0.05 µM) of the same molecule?
Answer: 0.0639

Question: And the relative viability (BEN; first compound 0.5 µM)?
Answer: 0.0625

Question: What about the relative viability (NCI-H2085; first compound 0.005 µM) of the same molecule?
Answer: 1.07

Question: And the relative viability (NCI-H2085; first compound 0.01581 µM)?
Answer: 1.1

Question: And the relative viability (NCI-H2085; first compound 0.05 µM)?
Answer: 1.17

Question: What about the relative viability (NCI-H2085; first compound 0.1581 µM) of the same molecule?
Answer: 1.04

Question: And the relative viability (NCI-H2085; first compound 0.5 µM)?
Answer: 1.14

— the supplement of paper PMC10307832
